Results published in patent publication US20130005759A1, “SMALL MOLECULE MODIFIERS OF MICRORNA MIR-122” (North Carolina State University, priority 2010, published 2013).

Tests used:
miR-122 = experiment: psiCHECK-miR122 dual luciferase reporter assay in Huh7 cells; assay type: cell-based, human; details: for EC50: Homo sapiens, Huh-7, read-out: EC50 (miR-122 inhibitors, luciferase dose response); for Renilla luciferase expression with psiCHECK-miR122 (in words): Huh7, 10 μM (antagomir transfected), normalized to DMSO; for increase in the relative luciferase signal / relative luciferase units (RLU) normalized to a DMSO control: Huh7, psiCHECK-miR122, 10 μM; for increase in the relative luciferase signal: 48 hours; for relative luciferase units (RLU) normalized to a DMSO control: mean ± SD of three independent assays
Excerpt: A miRNA small molecule modifier screen for miR-122 was developed based on the psiCHECK-2 (Promega) reporter plasmid (FIG. 9). This construct expresses both Renilla luciferase as well as firefly luciferase, allowing for the normalization of the signal to account for differential cellular viability and variability in transfection efficiency. The miR-122 target sequence was inserted downstream of the Renilla luciferase gene, between the PmeI and SgfI restriction sites. In another aspect of the invention, plasmids expressing luciferase or another reporter gene such as for example, fluorescent reporters (GFP and variants thereof, DsRed, etc.) or beta-galactosidase can be used to screen for small molecule modifiers of miR-122. The mi-122 target sequence may be upstream or downstream of the reporter gene. Multiple miR-122 target sites can also be inserted into or be present in the plasmid.
The presence of mature miR-122 will lead to a decrease in the Renilla luciferase signal (FIG. 1a). The ability to detect endogenous miR-122 was validated by transfecting the generated psiCHECK-miR122 construct into Huh7 and HeLa cells. After 48 hour incubation, the cells were assayed using a Dual Luciferase Assay Kit (Promega). In another embodiment, the cells can be incubated for about 24-96 hours. The Dual Luciferase Assay Kit provides a means to measure the amount of the luciferases by generating a luminescent signal. Using this assay the luminescence from the firefly luciferase reaction may be quenched while the luminescent reaction of Renilla luciferase can be activated. Other assays and procedures that can determine the amount of the one or more reporter genes or miR-122 expression, activity or function can be used. An example of another assay is Dual-Glo Assay (Promega).
The psiCHECK-miR122 vector was then employed in a small molecule screen in Huh7 cells to discover modifiers of miR-122 function. Other cells that express miR-122 such as HepG2 and Hep3B can be used in addition to or instead of Huh7 cells. An increase in the relative Renilla luciferase signal indicates a miR-122 inhibitor, while a reduction in the luciferase signal indicates a miR-122 activator. A genus of compounds that may have activity as modifiers of miR122 function are the Diversity Set II (1364 compounds) from the NCI Developmental Therapeutics Program was screened using Huh7 cells containing the psiCHECK-miR122 reporter. Cells were exposed to the small molecules and the relative luciferase signal was measured after 48 hours using a Dual Luciferase Assay Kit (Promega). In another embodiment the cells can be exposed to the small molecules for about 24-96 hours. As explained above, other assays and procedures that can determine the amount of the one or more reporter genes or miR-122 expression, activity or function can be used.
The analogs were screened for activity using the previously described miR-122 assay. All cells were treated with 10 μM of a compound and experiments were performed in triplicate to ensure statistical validity. The data was normalized to a 1% DMSO control and is reported in relative luciferase units (RLU). The standard deviation was calculated from three independent assays. Some analogs of miR-122 inhibitor compound 1 are:
Huh7 and HeLa cells were transfected at approximately 60% confluency with either the psiCHECK-Control plasmid (the original psiCHECK-2 plasmid containing no known miRNA binding site) or the psiCHECK-miR122 plasmid (0.5 μg) using X-tremGENE transfection reagent (3:2 reagent/DNA ratio; Roche) in Opti-Mem media (Invitrogen). All transfections were performed in triplicate for statistical analysis. The cells were incubated at 37° C. for 4 hours followed by the replacement of transfection media with standard DMEM growth media. After 48 hours of incubation the media was removed, cells were lysed and assayed with a Dual Luciferase Assay Kit (Promega) using a Wallac VICTOR^3V luminometer with a measurement time of 1 s and a delay time of 2 s. […]

[1] = system: hepatitis C virus (HCV) genotype 1a H77c RNA; experiment: HCV replication in Huh7 cells (HCV RNA by quantitative RT PCR); assay type: cell-based; details: Huh7, 10 μM (antagomir transfected), 48 hours
Experimental: Aberrantly regulated miR-122 is involved in the development of heptocellular carcinoma (HCC). miR-122 is a cellular component required by hepatitis C virus (HCV) for viral replication. […] Due to the efficient down-regulation of miRNA-122 by the small molecule inhibitors 1 and 2, both compounds were tested for their ability to inhibit HCV replication in Huh7 cells. The pHtat2Neo/QR/KR/FV/SI plasmid (provided by Dr. Stanley Lemon of University of Texas Medical Branch (UTMB)) was used to generate genotype 1a H77c RNA, which was subsequently transfected into Huh7 cells.^16 The cells were then either transfected with a miR-122 antagomir (positive control), or treated with compounds 1 and 2 (10 μM), or DMSO (negative control). After 48 hours, total RNA was isolated and HCV RNA levels were measured by quantitative RT PCR (FIG. 7). In agreement with previous reports, the antagomir reduced HCV RNA levels to 20%.^6 Moreover, the small molecule miR-122 inhibitors 1 and 2 elicited a reduction in viral load to 48% and 47%, respectively.
The pHtat2Neo/QR/KR/FV/SI plasmid (provided by Dr. Stanley Lemon)^16 was linearized using XbaI (10 units, 50 μL reaction; New England Biolabs), followed by transcription with T7 RNA Polymerase (6 h, 37° C.), and purification on Microcon 10 columns. Huh7 cells were then grown to 60% confluency in a 6 well plate and transfected with 1 μg RNA using X-tremGENE transfection reagent (Roche Applied Science, 3:2 reagent/RNA ratio) in Opti-Mem media (Invitrogen). After a 4 hour incubation at 37° C., the transfection media was removed and replaced with standard growth media (2 mL) supplemented with 10 μM of 1 or 2 (1% DMSO final concentration). All experiments were conducted in triplicate for statistical validation. […] Quantitative RT-PCR was then performed as previously described using the general HCV RT-PCR Primers (5′: […] 3′ (SEQ ID NO:7) and 5′ […] 3′) (SEQ ID NO:8) and GADPH primers (5′ […] 3′ (SEQ ID NO:9) and 5′ […] 3′) (SEQ ID NO:10) as a standard control.

| Structure (SMILES) | EC50 (miR-122) | Renilla luciferase expression with psiCHECK-miR122 (in words) (miR-122) | increase in the relative luciferase signal (miR-122) | relative luciferase units (RLU) normalized to a DMSO control (miR-122) | HCV RNA levels / viral load reduced to [1] |
| --- | --- | --- | --- | --- | --- |
| O=C(Nc1ccc2ccccc2c1)c1ccc(Cl)cc1Cl [Compound 1] | 7.73 ± 0.38 µM | significant increase | 773±38% | 7.73±0.38 RLU | 48% |
| O=S(=O)(c1ccc2c(c1)CCCN2)N1CCC[C@H]2CCCC[C@@H]21 [Compound 2] | 12.5 ± 1.25 µM | significant increase | 1251±125% | 12.51±1.25 RLU | 47% |
